# Experimental data taken from patent US20090005361A1, “Combination of Organic Compounds” (priority 2006, published 2009).
# Legend:
# Assay type in all cases: biochemical
# rat renin = target: T1, rat renin (Rattus norvegicus, UniProt P08424); test: renin inhibition, species specificity (rat renin); settings: relative potency loss against rat renin
# T1 sequence (P08424 65-402): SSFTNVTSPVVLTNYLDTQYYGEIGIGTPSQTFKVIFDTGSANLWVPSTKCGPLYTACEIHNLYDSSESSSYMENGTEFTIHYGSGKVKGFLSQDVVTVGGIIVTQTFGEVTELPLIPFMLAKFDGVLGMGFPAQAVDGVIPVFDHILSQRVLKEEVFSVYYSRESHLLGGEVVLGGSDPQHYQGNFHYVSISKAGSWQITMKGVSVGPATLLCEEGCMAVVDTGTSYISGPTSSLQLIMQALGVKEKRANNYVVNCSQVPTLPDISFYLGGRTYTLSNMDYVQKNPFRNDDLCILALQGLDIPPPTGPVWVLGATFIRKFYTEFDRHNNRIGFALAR
# dog renin = target: T2, dog renin (Canis lupus familiaris, UniProt Q6DYE7); test: renin inhibition, species specificity (dog renin); settings: stated in words, compared with human renin
# T2 sequence (Q6DYE7 66-403): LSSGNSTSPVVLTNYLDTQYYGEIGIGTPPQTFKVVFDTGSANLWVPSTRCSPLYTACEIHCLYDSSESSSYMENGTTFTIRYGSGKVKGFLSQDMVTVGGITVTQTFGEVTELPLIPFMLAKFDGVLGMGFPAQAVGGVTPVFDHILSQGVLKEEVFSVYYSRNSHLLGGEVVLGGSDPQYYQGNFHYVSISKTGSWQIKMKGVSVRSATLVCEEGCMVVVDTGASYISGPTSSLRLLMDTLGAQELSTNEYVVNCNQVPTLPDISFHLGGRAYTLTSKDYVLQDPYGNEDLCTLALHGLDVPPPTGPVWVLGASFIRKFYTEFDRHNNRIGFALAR
# mouse renin = test: renin inhibition, species specificity (mouse renin); settings: stated in words, compared with human renin
structure (smiles),measurement,setting,value
"COCCCOc1cc(C[C@@H](C[C@H](N)[C@@H](O)C[C@H](C(=O)NCC(C)(C)C(N)=O)C(C)C)C(C)C)ccc1OC [aliskiren, 2(S),4(S),5(S),7(S)-N-(3-amino-2,2-dimethyl-3-oxopropyl)-2,7-di(1-methylethyl)-4-hydroxy-5-amino-8-[4-methoxy-3-(3-methoxy-propoxy)phenyl]-octanamide]",weaker as a rat renin inhibitor,rat renin,1-2 orders of magnitude
same,potency against dog renin,dog renin,reasonable potency
same,potency against mouse renin,mouse renin,reasonable potency
